Read-outs that look alike come from different tables or passages of the source.
Tests used:
fungal mycelium = experiment: organism not typed; type: cell-based; conditions: read-out: % growth inhibition
[1] = system: Thanatephorus cucumeris (Rhizoctonia solani); experiment: In vivo test b) Rice Sheath Blight (RSB), 24 hour preapplication protectant, % control; conditions: 200 ppm, protectant, read-out: % Control RSB
Protocol: Compounds were tested at 200 ppm as a twenty-four hour preapplication protectant test prior to inoculation.
b) Rice Sheath Blight (RSB)
Thanatephorus cucumeris (Rhizoctonia solani) mycelia were grown for six days in potato dextrose broth in shake culture. Drained mycelial mats were blended with an approximately equal weight of rice flour and five parts water. This slurry was dispensed onto the soil surface of pots containing rice seedlings previously treated with experimental compounds. The plants were placed in a mist chamber at 25°-28° C. for 48 hours. Following two more days at 25° C. and 70-90% relative humidity the plants were evaluated for percent disease control compared to check plants.

[2] = system: Magnaporthe grisea (Pyricularia oryzae); experiment: whole plant or invertebrate; type: in vivo, Magnaporthe grisea (Pyricularia oryzae) on M201 rice plants; conditions: Pyricularia oryzae, 144 h, read-out: % Control RB
Candida albicans = experiment: Activity against Candida albicans in microtiter plates, % control of growth; type: cell-based
Protocol: The activity against Candida albicans was determined using the following test protocol.
Conidia and mycelium from the Candida albicans culture maintained on potato dextrose agar plates were lightly scraped off into yeast extract-dextrose broth (YDB) so that mostly conidia was used as inoculum. The conidial suspsension was strained through a double layer of cheesecloth to remove mycelial clumps. The inoculum mixture was placed in microtiter plates using a 12-tipped pipet. 175 microliters were placed in each well of the microliter plates and the plates were placed in the refrigerator overnight. There were two replications.
The compounds to be tested were dissolved in 1:1 acetone:methanol and 100 ppm of the compound solution were placed in a well of the prepared microtiter plates.
The microtiter plates were incubated for 7 days at room temperature after addition of the compounds. Percent control was visually estimated using a microtiter plate reading mirror. Readings were made at 1, 2, 3, and/or 7 days after treatment.

[3] = 24 h, 1 day after treatment, read-out: % control of growth +1
[4] = 48 h, 2 days after treatment, read-out: % control of growth +2
[5] = 72 h, 3 days after treatment, read-out: % control of growth +3

`O=C1CCC(c2ccc(Cl)cc2)=NN1CC#CC(F)F` [Compound 89] showed an inhibition at 10 ppm (fungal mycelium) of 100%, a pest or weed control at 200 ppm [1] of 0% and a pest or weed control at 200 ppm [2] of 95%.
`CCC#CCN1N=C(c2cc(F)c(Cl)c(F)c2)CCC1=O` [Compound 90] gave an inhibition at 1 ppm (fungal mycelium) of 100%, a pest or weed control at 200 ppm [1] of 95% and a pest or weed control at 200 ppm [2] of 0%.
In the case of `CC=CC#CCN1N=C(c2ccc(Cl)cc2)CCC1=O` [Compound 101], the inhibition at 1 ppm (fungal mycelium) was 100%, the pest or weed control at 200 ppm [1] was 0% and the pest or weed control at 200 ppm [2] was 75%.
Work on `C/C=C\C#CCN1N=C(c2ccc(Cl)cc2)CCC1=O` [Compound 102] yielded an inhibition at 1 ppm (fungal mycelium) of 100%, a pest or weed control at 200 ppm [1] of 0% and a pest or weed control at 200 ppm [2] of 99%.
In the case of `C/C=C/C#CCN1N=C(c2ccc(Cl)cc2)CCC1=O` [Compound 103], the inhibition at 1 ppm (fungal mycelium) was 100%, the pest or weed control at 200 ppm [1] was 0% and the pest or weed control at 200 ppm [2] was 95%.
`CCC#CCN1N=C(c2ccc(F)c(Cl)c2)CCC1=O` [Compound 104] gave an inhibition at 5 ppm (fungal mycelium) of 100%, a pest or weed control at 200 ppm [1] of 0% and a pest or weed control at 200 ppm [2] of 0%.
In the case of `O=C1CCC(c2ccc(Cl)cc2)=NN1Cc1cccc(Cl)c1` [Compound 105], the inhibition at 10 ppm (fungal mycelium) was 33.3%, the pest or weed control at 200 ppm [1] was 0% and the pest or weed control at 200 ppm [2] was 75%.
`CC#CCN1N=C(C=Cc2ccc(C(C)(C)C)cc2)CCC1=O` [Compound 107] showed an inhibition at 200 ppm (fungal mycelium) of 83.7%, a pest or weed control at 200 ppm [1] of 0% and a pest or weed control at 200 ppm [2] of 0%.
For `CCC#CCn1nc(-c2ccc(Cl)c(F)c2)ccc1=O` [Compound 120], the inhibition at 1 ppm (fungal mycelium) was 100%, the inhibition of growth at 100 ppm (Candida albicans; [3]) was 100% and the inhibition of growth at 100 ppm (Candida albicans; [4]) was 100%. For the same compound, the inhibition of growth at 100 ppm (Candida albicans; [5]) was 100% and the pest or weed control at 200 ppm [2] was 99%.
`CCC#CCn1nc(-c2ccc(Br)cc2)ccc1=O` [Compound 121] gave an inhibition at 1 ppm (fungal mycelium) of 100%, an inhibition of growth at 100 ppm (Candida albicans; [3]) of 100% and an inhibition of growth at 100 ppm (Candida albicans; [4]) of 100%. The inhibition of growth at 100 ppm (Candida albicans; [5]) was 100% and the pest or weed control at 200 ppm [2] was 95%.
With `CCC#CCn1nc(-c2ccc(Br)c(F)c2)ccc1=O` [Compound 127] the inhibition at 1 ppm (fungal mycelium) was 100%, the inhibition of growth at 100 ppm (Candida albicans; [3]) was 100% and the inhibition of growth at 100 ppm (Candida albicans; [4]) was 100%. It also gave an inhibition of growth at 100 ppm (Candida albicans; [5]) of 100% and a pest or weed control at 200 ppm [2] of 0%.
In the case of `CCC#CCn1nc(-c2ccc(F)c(Cl)c2)ccc1=O` [Compound 129], the inhibition at 1 ppm (fungal mycelium) was 100%, the pest or weed control at 200 ppm [1] was 0% and the pest or weed control at 200 ppm [2] was 0%.
`CC(F)C#CCn1nc(-c2ccc(Cl)cc2)ccc1=O` (centres unmarked) [Compound 130] gave an inhibition at 1 ppm (fungal mycelium) of 100%, an inhibition of growth at 100 ppm (Candida albicans; [3]) of 100% and an inhibition of growth at 100 ppm (Candida albicans; [4]) of 100%. It also gave an inhibition of growth at 100 ppm (Candida albicans; [5]) of 100%.
For `O=c1ccc(-c2ccc(Cl)cc2)nn1CC#CCCF` [Compound 131], the inhibition at 1 ppm (fungal mycelium) was 100%, the inhibition of growth at 100 ppm (Candida albicans; [3]) was 100% and the inhibition of growth at 100 ppm (Candida albicans; [4]) was 100%. It also gave an inhibition of growth at 100 ppm (Candida albicans; [5]) of 100%.
Compound `CC#CCN1N=C(c2cccnc2)CCC1=O` [Compound 132] has an inhibition at 200 ppm (fungal mycelium) of 91.8%, a pest or weed control at 200 ppm [1] of 0% and a pest or weed control at 200 ppm [2] of 0%.
Work on `CCC#CCN1N=C(c2ccc(Cl)cc2)CCC1=S` [Compound 153, 6-(4-chlorophenyl)-2-(2'-pentynyl)-4,5-dihydropyridazinthione] yielded an inhibition at 10 ppm (fungal mycelium) of 90.9%, an inhibition of growth at 100 ppm (Candida albicans; [3]) of 100% and an inhibition of growth at 100 ppm (Candida albicans; [4]) of 100%. The inhibition of growth at 100 ppm (Candida albicans; [5]) was 100% and the pest or weed control at 200 ppm [2] was 0%.
In the case of `CCC#CCn1nc(-c2ccc(Cl)cc2)c2ccccc2c1=O` [Compound 154], the inhibition at 10 ppm (fungal mycelium) was 16%, the pest or weed control at 200 ppm [1] was 0% and the pest or weed control at 200 ppm [2] was 50%.
`CCC#CCN1N=C2c3ccc(Cl)cc3C(C)C2CC1=O` (centres unmarked) [Compound 155] showed an inhibition at 10 ppm (fungal mycelium) of 92%, a pest or weed control at 200 ppm [1] of 90% and a pest or weed control at 200 ppm [2] of 100%.
For `CCC#CCN1N=C(c2ccc(Cl)cc2)CC=C1Cl` [Compound 157, 6-(4-chlorophenyl)-3-chloro-2-(2'-pentyn-1-yl)-2,5-dihydropyridazine], the inhibition at 10 ppm (fungal mycelium) was 100%, the pest or weed control at 200 ppm [1] was 0% and the pest or weed control at 200 ppm [2] was 10%.
Work on `CCC#CCN1N=C(c2ccc(Cl)cc2)CC=C1n1cncn1` [Compound 159] yielded an inhibition at 1 ppm (fungal mycelium) of 100%, a pest or weed control at 200 ppm [1] of 0% and a pest or weed control at 200 ppm [2] of 0%.
`CCC#CCN1N=C(c2ccc(Cl)cc2)CC=C1Br` [Compound 160] gave an inhibition at 1 ppm (fungal mycelium) of 100%, a pest or weed control at 200 ppm [1] of 95% and a pest or weed control at 200 ppm [2] of 0%.
`CCC#CCN1N=C(c2ccc3ccccc3n2)CCC1=O` [Compound 229, 6-(2-quinoline)-2-(2'-pentynyl)-4,5-dihydropyridazinone] showed an inhibition at 5 ppm (fungal mycelium) of 100%, an inhibition of growth at 100 ppm (Candida albicans; [3]) of 100% and an inhibition of growth at 100 ppm (Candida albicans; [4]) of 100%. The inhibition of growth at 100 ppm (Candida albicans; [5]) was 100%.

— patent publication US5726162A (priority 1996, dated 1998)
